Assay results from US4597900A, “Des^2 -glycine^8 -des^22 -calcitonin” (Armour Pharmaceutical Co., priority 1983, dated 1986).
Where a SMILES comes first, the peptide text is derived from it. Bridges are numbered along the chain shown (N, C = ends).

System: serum calcium concentration
Experiment: Biological assay of calcitonin analogs in vivo: reduction of serum calcium concentration, 2x2 parallel line assay
Parameters: species or system Rats
Protocol: The biological potency of [Des-Serine^2 -Glycine^8 -Des-Tyrosine^22 ]salmon calcitonin was determined by comparing the reduction of serum calcium concentration which followed administration by graded doses of [Des-Ser^2 -Gly^8 -Des-Tyr^22 ]SCT and synthetic salmon calcitonin standard. Rats were divided into four groups of seven animals, and each group was assigned at random to a dose of standard or test solution. Low and high doses were chosen from the linear portion of the dose-response curve. For the salmon calcitonin standard, the values were 0.7 and 2.1 ng. peptide/100 g. body weight (BW). This dose approximates 3 and 9 MU/100 g. BW. Peptides were given by subcutaneous injection (0.2 ml/100 g. BW) and blood was withdrawn 1 hour later for serum calcium determination. Sera are processed and analyzed within two hours of collection. […]. Results were analyzed by a 2×2 parallel line assay [Gaddum, J. H., J. Pharm. Pharmacol., 6, 345 (1953)]. The standard salmon calcitonin used was independently determined to contain greater than 4,000 IU/mg. [Des-Ser^2 -Gly^8 -Des-Tyr^22 ]SCT assayed at 6900 IU/mg.

SMILES	biological potency (reduction of serum calcium concentration) (rats, subcutaneous injection, blood withdrawn 1 hour later, compared with synthetic salmon calcitonin standard) [IU/mg]	potency of standard, independently determined (standard salmon calcitonin used in the assay)
CC(C)C[C@H](NC(=O)CNC(=O)[C@@H]1CSSC[C@H](N)C(=O)N[C@@H](CC(N)=O)C(=O)N[C@@H](CC(C)C)C(=O)N[C@@H](CO)C(=O)N[C@@H]([C@@H](C)O)C(=O)N1)C(=O)NCC(=O)N[C@@H](CCCCN)C(=O)N[C@@H](CC(C)C)C(=O)N[C@@H](CO)C(=O)N[C@@H](CCC(N)=O)C(=O)N[C@@H](CCC(=O)O)C(=O)N[C@@H](CC(C)C)C(=O)N[C@@H](Cc1c[nH]cn1)C(=O)N[C@@H](CCCCN)C(=O)N[C@@H](CC(C)C)C(=O)N[C@@H](CCC(N)=O)C(=O)N[C@H](C(=O)N1CCC[C@H]1C(=O)N[C@@H](CCCNC(=N)N)C(=O)N[C@H](C(=O)N[C@@H](CC(N)=O)C(=O)N[C@H](C(=O)NCC(=O)N[C@@H](CO)C(=O)NCC(=O)N[C@H](C(=O)N1CCC[C@H]1C(N)=O)[C@@H](C)O)[C@@H](C)O)[C@@H](C)O)[C@@H](C)O [[Des-Ser^2 -Gly^8 -Des-Tyr^22]SCT, [Des-Serine^2 -Glycine^8 -Des-Tyrosine^22]salmon calcitonin] (H-CNLSTCGLGKLSQELHKLQTPRTNTGSGTP-NH2; disulfide 1-6)	6900	–
CC(C)C[C@H](NC(=O)[C@H](CCCCN)NC(=O)CNC(=O)[C@H](CC(C)C)NC(=O)[C@@H](NC(=O)[C@@H]1CSSC[C@H](N)C(=O)N[C@@H](CO)C(=O)N[C@@H](CC(N)=O)C(=O)N[C@@H](CC(C)C)C(=O)N[C@@H](CO)C(=O)N[C@@H]([C@@H](C)O)C(=O)N1)C(C)C)C(=O)N[C@@H](CO)C(=O)N[C@@H](CCC(N)=O)C(=O)N[C@@H](CCC(=O)O)C(=O)N[C@@H](CC(C)C)C(=O)N[C@@H](Cc1c[nH]cn1)C(=O)N[C@@H](CCCCN)C(=O)N[C@@H](CC(C)C)C(=O)N[C@@H](CCC(N)=O)C(=O)N[C@H](C(=O)N[C@@H](Cc1ccc(O)cc1)C(=O)N1CCC[C@H]1C(=O)N[C@@H](CCCNC(=N)N)C(=O)N[C@H](C(=O)N[C@@H](CC(N)=O)C(=O)N[C@H](C(=O)NCC(=O)N[C@@H](CO)C(=O)NCC(=O)N[C@H](C(=O)N1CCC[C@H]1C(N)=O)[C@@H](C)O)[C@@H](C)O)[C@@H](C)O)[C@@H](C)O [standard salmon calcitonin, Salmon calcitonin]	–	greater than 4,000 IU/mg
